Results from patent publication US20130149757A1 (OPTINOL, INC., priority 2011, published 2013).

Tests used:
[1] = tested on: strains of C. saccharoperbutylacetonium; conditions: Keis et al, 2001; cited from earlier work
[2] = tested on: C. saccharoperbutylacetonium; conditions: reported (Keis et al.); cited from earlier work
[3] = tested on: bacterial cells; conditions: cited from earlier work
[4] = tested on: C. saccharoperbutylacetonium N1-504; conditions: cited from earlier work
[5] = tested on: Novel organism; experiment: Carbohydrate utilization screen; assay type: cell-based, Clostridium beijerinckii sp. optinoii
Text: A full carbohydrate screen was run to test whether the organism is actually N1-504. […] Rather it falls closer to (but is not identical with) C. beijerinckii.

[6] = Liquid-liquid extraction with corn oil (Karr extractor); assay type: physicochemical
Method: Two runs were conducted, each with a different flow rate.

Row | Compound | Carbohydrate utilization, strains of C. saccharoperbutylacetonium generally [1] | other results
1 | O=C[C@H](O)[C@@H](O)[C@H](O[C@@H]1O[C@H](CO)[C@@H](O)[C@H](O)[C@H]1O)[C@H](O)CO [Cellobiose] | will utilize | –
2 | CO[C@H]1/C=C/O[C@@]2(C)Oc3c(C)c(O)c4c(O)c(c(/C=N/N5CCN(C)CC5)c(O)c4c3C2=O)NC(=O)/C(C)=C\C=C\[C@H](C)[C@H](O)[C@@H](C)[C@@H](O)[C@@H](C)[C@H](OC(C)=O)[C@@H]1C [rifampin] | – | resistance / inhibition of the organism [2]: resistant
3 | n-butanol | – | inhibits growth ([3]; […] butanol): ~100%; inhibits cell growth and fermentation ([3]; butanol at a concentration of 1 percent): about 20%
4 | OC[C@@H](O)[C@@H](O)[C@H](O)[C@@H](O)CO [Sorbitol] | – | Carbohydrate utilization, C. saccharoperbutylacetonium N1-504 [4]: will not utilize
5 | O=C[C@H](O)[C@@H](O)[C@H](O)CO [Xylose] | will utilize | Carbohydrate utilization, Novel organism [5]: does not grow
6 | inulin | will utilize | –
7 | CC(C)O [Isopropanol, isopropanol] | – | % extraction, Run 1 ([6]; flow rate feed 26 ml/min): 23.0%; % extraction, Run 2 ([6]; flow rate feed 39 ml/min): 21.5%; extraction in this set up ([6]; summary comment): about 21%
8 | O=C[C@@H](O)[C@H](O)[C@H](O)CO [Arabinose] | will utilize | –
9 | OC[C@H]1O[C@H](O[C@H]2[C@H](O)[C@@H](O)[C@H](O)O[C@@H]2CO)[C@H](O)[C@@H](O)[C@@H]1O [maltose] | will utilize | –
10 | OC[C@@H](O)[C@H](O)[C@H](O)[C@@H](O)CO [dulcitol] | – | Carbohydrate utilization, C. saccharoperbutylacetonium N1-504 [4]: will not utilize
11 | dextrin | will utilize | –
12 | O[C@H]1[C@H](O)[C@@H](O)[C@H](O)[C@@H](O)[C@H]1O [inositol] | – | Carbohydrate utilization, C. saccharoperbutylacetonium N1-504 [4]: will not utilize
13 | glycogen | will utilize | –
14 | OC[C@H]1O[C@@](CO)(O[C@H]2O[C@H](CO)[C@@H](O)[C@H](O)[C@H]2O)[C@@H](O)[C@@H]1O [sucrose] | will utilize | –
15 | starch | will utilize | –
16 | pectin | will utilize | –
17 | OC[C@H]1O[C@@H](O[C@H]2[C@H](O)[C@@H](O)C(O)O[C@@H]2CO)[C@H](O)[C@@H](O)[C@H]1O (stereo partly drawn) [lactose] | will utilize | –
